Row | Structure (SMILES) | melting point [°C]
1 | NNc1c(S(=O)(=O)C(F)(F)F)cnn1-c1c(Cl)cc(C(F)(F)F)cc1Cl | 154
2 | Fc1ccc2[nH]ccc2c1Cl | 41 to 43
3 | CCON=C(CC)C1=C(O)CC(c2c(C)c(C)c3c(c2Cl)CC(C)(CC)C3)CC1=O (configuration not stated) | 93 to 94
4 | CC(=O)Oc1ccc(CC2CCCN2C)cc1OC(C)=O (configuration not stated) | 44 to 45
5 | COc1ccc(-c2ncc3n2CNc2ccccc2-3)cc1 | 190 to 191
6 | O=C(Nc1ccc2c(c1)OCO2)c1ccc([N+](=O)[O-])cc1 | 231 to 234
7 | Nc1ccc(SCc2csc(N)n2)cc1 | 130 to 132
8 | CCC1C(C)=NN=C(c2ccc(O)c(O)c2)c2cc(O)c(O)cc21 (configuration not stated) | 250 to 251
9 | Cc1ccc(C#N)cc1Cl | 46.5 to 47.5
10 | COCC(=O)NCC1CCC(Nc2nc3c(s2)CCCc2ccc(F)cc2-3)CC1 (configuration not stated) | 63 to 65
11 | COc1ccc(-c2nc3cnccc3[nH]2)c(O)c1 | 255
12 | Cn1nc(-c2cc(C=O)c(Cl)cc2Cl)c(Cl)c1OC(F)F | 138
13 | CN(c1nc(N)no1)c1c(Cl)cccc1Cl | 177 to 178
14 | CNCC(O)COc1ccccc1 (configuration not stated) | 74 to 77
15 | CC(C)N1CCN(c2ccc(OCC(O)CC(O)(Cn3cncn3)c3ccc(Cl)cc3Cl)cc2)CC1 (configuration not stated) | 131 to 132
16 | Cn1ccnc1Sc1ccc([N+](=O)[O-])cc1 | 120 to 121
17 | Cc1[nH]nc(Oc2c(Cl)cc(C(F)(F)F)cc2Cl)c1C | 220 to 223
18 | CCC(C)NC(C(=O)NCCCC(c1ccc(F)cc1)c1ccc(F)cc1)C(C)C (configuration not stated) | 77 to 81
19 | Cc1ccc2c(c1)C(=NNC(=N)N)CC2 | > 250
20 | N#Cc1cnn(-c2c(Cl)cc(Cl)cc2Cl)c1N | 208 to 210
21 | CC(N)Cc1ncc(O)c(C(=O)c2ccccc2)c1C(=O)c1ccccc1 (configuration not stated) | 110 to 112
22 | CC(=O)N(CCN1CCOCC1)C(C)C1(c2ccc(Cl)c(Cl)c2)CCC1 (configuration not stated) | 121 to 122
23 | CC1COc2c(N3CCN(C#N)CC3NC(=N)N)c(F)cc3c(=O)c(C(=O)O)cn1c23 (configuration not stated) | 298 to 300
24 | N#Cc1cc([N+](=O)[O-])ccc1N1CCC(N2CCCCC2)CC1 | 134 to 135
25 | ClCCCc1nc2ccccn2n1 | 56.5 to 57
26 | O=S(=O)(/C=C/c1ccc(Cl)cc1)Nc1cccc(Cl)c1 | 118 to 120
27 | COc1ccc(N(C(=O)CN2C(=O)C(C)(Cc3n[nH]c4ccccc34)C(=O)N(c3cccnc3)c3ccccc32)C(C)C)cc1 (configuration not stated) | 161 to 165

Row | Structure (SMILES) | melting point [°C]
28 | Nc1c(-c2ccc(C(F)(F)F)cc2F)nnn1-c1ccc(S(N)(=O)=O)cc1 | 184 to 185
29 | N#Cc1nn(-c2c(Cl)cc(C(F)(F)F)cc2Cl)c(N)c1-c1ccc(Br)cc1 | 242 to 244
30 | CCOC(=O)c1cn(CC)c2nc(N3CCN(C(=O)OCC)CC3)c(F)cc2c1=O | 171 to 173
31 | O=C(O)c1ccc(SC(=O)c2ccc(O)c(C34CC5CC(CC(C5)C3)C4)c2)cc1 | 272 to 274
32 | COc1ccc(-c2ccc(C(=O)Nc3ccc4cc(CN5CCCC5)cnc4c3)cc2)cc1 | 202 to 204
33 | COc1cc2c(c(Cl)c1Cl)C(=O)C(CCCl)C2 (configuration not stated) | 103 to 105
34 | COc1cc(CCI)cc2c1OCO2 | 78 to 80
35 | O=C(O)/C=C/c1cc(OCC2CC2)nn1Cc1ccc(C(F)(F)F)cc1Cl | 195 to 196
36 | O=C1CCC(=O)C(Cc2ccccc2)N1 (configuration not stated) | 140 to 141
37 | N#CC(Br)(Br)c1ccccn1 | 59 to 61
38 | C=CCN(C(C)=O)c1cccc(-c2ccnc3c(C#N)cnn23)c1 | 135 to 137
39 | CCCCCCNc1nc(-c2ccc(F)cc2)c(-c2ccc(S(C)(=O)=O)cc2)s1 | 161 to 162
40 | O=C(O)c1ccc(NCCCCCCCCCCc2ccccc2)cc1 | 80 to 87
41 | CC1(C)CC(N(CCCCCCN(c2nc(Cl)nc(Cl)n2)C2CC(C)(C)NC(C)(C)C2)c2nc(Cl)nc(Cl)n2)CC(C)(C)N1 | 161 to 163
42 | COCCCS(=O)(=O)NC(=O)CCc1cc(OCC2CC2)nn1Cc1ccc(C(F)(F)F)cc1Cl | 152 to 154
43 | Cn1cc(-c2cnc3c(c2)ncn3Cc2ccc3ncccc3c2)cn1 | 150 to 152
44 | O=Cc1cc(-c2ccc(Cl)cc2F)ccc1OC(F)(F)F | 41 to 42
45 | Cc1ccc2c(n1)CCCC2(O)c1ccccc1 (configuration not stated) | 130 to 134
46 | CCn1nc(O)nc1Cl | 108 to 110
47 | CCOCn1c(-c2cc(F)cc(F)c2)c(C#N)c(Br)c1C(F)(F)F | 74 to 75
48 | COC(=O)Nc1c(C/C=C(\C)CCC(=O)O)c(OC)c(C)c2c1C(=O)OC2 | 155 to 158
49 | Cc1nc2ccc(N(C)C)nn2c1S(N)(=O)=O | 227
50 | O=C(CCCCN1CCCCC1)c1ccc2c(c1)Cc1cc(C(=O)CCCCN3CCCCC3)ccc1O2 | 129 to 130
51 | CS(=O)(=O)Nc1cccc(Nc2nc(OCC3CCCCC3)c3nc[nH]c3n2)c1 | 169 to 172
52 | Nc1ncnc2c1c(-c1ccc(Oc3ccc(F)cc3)cc1)cn2C1CCOC1 (configuration not stated) | 198 to 199
53 | C[C@H]1CN(c2ccc([N+](=O)[O-])cc2)[C@@H](C)CN1 (relative stereo) | 93 to 94

The remaining lines, values ahead:

Row | melting point [°C] | Structure (SMILES)
54 | 78 to 79 | COc1cc(CCCCCCCO)ccc1OCc1nc(-c2ccccc2)oc1C
55 | 273 | CCCNC(=O)c1cc2c(nc(C)n2C)c2c1CCC(c1ccccc1)O2 (configuration not stated)
56 | 106 to 108 | Cc1ccccc1OCCC1CCN(c2cc(Cl)nnc2Cl)CC1
57 | 88 | CCOC(=O)C1=COc2cc(OC(C)=O)ccc2O1
58 | 148 to 150 | CCC(Oc1cccc(C)c1C)C(=O)OC1CC(O)C=C2C=CC(C)C(CCC3CC(O)CC(=O)O3)C21 (mixture of isomers)
59 | 195 to 198 | O=C(O)CCCN1CCN(Cc2ccc3c(c2)-c2[nH]nc(-c4ccsc4)c2C3)CC1
60 | 201 to 203 | COc1ccc(S(=O)(=O)Cl)c2c3ccccc3n(C=O)c12
61 | 204 to 206 | O=C(Nc1nccs1)c1ccc(-c2ccc3nnn(Cc4ccc5ncccc5c4)c3n2)cc1F
62 | 93 to 95 | CC(=O)c1ccc(-c2ccc(F)cc2F)c(N)c1
63 | > 300 | CCOC(=O)C(=O)Nc1cc(NC=O)ccc1O
64 | 163 to 165 | O=C(c1ccccc1)c1cccc2c1OCC2C(=O)O (configuration not stated)
65 | 100 to 101 | CCN1CCN(C2=Nc3cc(Cl)ccc3Sc3ccccc32)CC1
66 | 91.5 to 96 | CNC(Cc1ccccc1NC(=O)C(C)(C)C)c1cccnc1 (configuration not stated)
67 | 293 to 294 | CNS(=O)(=O)c1cnc2ccc(OC)cc2c1O
68 | 114 to 116 | O=c1oc(-c2ccccc2)cc(O)c1SCCCc1ccccc1
69 | 145 to 146 | CCOC(=O)c1nc(S)n(-c2ccccc2)c1C(=O)OCC
70 | > 220 | NS(=O)(=O)c1ccc(NN=C2C(=O)Nc3cc4c(cc32)OCO4)cc1
71 | 49.7 to 50.9 | COc1cc2c3c(c1)c(=O)c(Cc1cccnc1)cn3-c1cc(Br)ccc1O2
72 | 194 to 198 | CCOc1ccc(NS(=O)(=O)c2cccc3c(N(C)C)cccc23)nn1
73 | 190 to 191 | CC/C(=C(\c1ccc(/C=C/C(=O)O)cc1)c1ccc(OC(=O)COC)cc1)c1ccccc1
74 | 205 | CCC1=C(C)CN(C(=O)NC2COc3cc(OC)c(S(=O)(=O)NC(=S)NC)cc3C2)C1=O (configuration not stated)
75 | 160 to 161 | COc1ccc(C(Sc2ccc3ccccc3c2N)C(O)C(=O)O)cc1 (configuration not stated)
76 | 48 to 49 | O=C1CC(C(=O)C(F)(F)F)Cc2ccccc21 (configuration not stated)
77 | 188 to 190 | CCCCN1CCN(Cc2nc(-c3ccc4c(c3)Nc3ccccc3S4)cs2)CC1
78 | 142 to 144 | COc1cc(C(=O)C=Cc2cc(-c3cccs3)ccc2OC)ccc1O

Row | melting point [°C] | Structure (SMILES)
79 | 206 to 207 | C[C@@H]1CN(CC(=O)Nc2ccccc2Cl)C[C@H](C)N1c1ncnc2sccc12
80 | > 275 | COc1ccc(/C=C/c2nc3c([nH]2)c(=O)n(C)c(=O)n3C)c(C)c1C
81 | 260 | O=C(O)CN1C(=O)c2cccc3c(Cl)ccc(c23)C1=O
82 | 218 | Cc1cc(=O)c(-c2ccccc2)c(-c2ccc(S(N)(=O)=O)cc2)o1
83 | 35 to 38 | CC(C)O[Si](C)(CCl)c1ccc(-c2ccccc2)cc1 (configuration not stated)
84 | 145 to 147 | O=C(O)c1cc(OCc2ccccc2)nc(OCc2ccccc2)c1
85 | 193 to 195 | CCOC(=O)c1cc2c(nc(C)n2C)c(O)c1CCC(O)c1ccccc1 (configuration not stated)
86 | 130 | CCOC(=O)c1ccc(OCCC2CCN(c3ccc(C)nn3)CC2)cc1
87 | 187 to 191 | CNC(=O)Cn1c(-c2ccc(Br)o2)nc2cccnc21
88 | 112 to 113 | CC(C)Cn1c(CO)c(OCCCC(F)(F)F)c2cc(OCc3ccccc3)ccc2c1=O
89 | 98 | CC(CO)c1ccc2nc(-c3ccccc3)oc2c1 (configuration not stated)
90 | 137 to 144 | CC(C)(C)c1cc(C=C2Sc3ccccc3N(CC(N)=O)C2=O)cc(C(C)(C)C)c1O
91 | 145 to 147 | CC(C)c1n[nH]c2c(NCc3ccccc3)nc(NCCN)nc12
92 | 245 to 247 | Oc1ccc(-c2[nH]c3ccccc3c2Cn2ccnc2)cc1
93 | 284 to 286 | CN1c2ccccc2-c2nc3ccc(/C=C/C(N)=O)cc3c3cccc1c23
94 | 137 to 138 | COc1ccc2c(C(=O)NCCCCC(=O)O)cc3cc4c(cc3c2c1)OCO4
95 | 219 to 220 | C[Si](C)(C)c1ccc2cc(C(=O)Nc3cnc4sc(CO)nc4c3)n(Cc3nccs3)c2c1
96 | 134 to 137 | N#Cc1cccc(C2=NOC3(C2)OC(=O)c2ccccc23)c1 (configuration not stated)
97 | 201 | COc1ccc2ccccc2c1CC(NC(C)=O)C(=O)O (configuration not stated)
98 | 101 to 103 | C#CCC(NC(=O)c1ccccc1)C(C)=O (configuration not stated)
99 | 70 | CN(C)Cc1ccc(CNC(=O)C2Cc3ccccc3N2S(=O)(=O)c2ccc(-c3cccc(C(F)(F)F)c3)cc2)cc1 (configuration not stated)
100 | 117 to 120 | CSC(=Nc1ccccc1C(=O)NC(C)C)NC(=O)c1ccccc1
101 | 170 to 171 | Cc1ccc2ccc3c(c2c1)CC(=O)O3
102 | 106 | CNC(=O)NCCN(c1ccc(Cl)cc1Cc1c(F)cccc1F)S(=O)(=O)c1ccc(OC)c(OC)c1

From a melting point compilation (Tetko et al.; mined from patent text by program, amines drawn as free bases though some values may be those of a salt)
